Data from ChEMBL document CHEMBL1142254, “5'-Fluoro-5'-deoxyaristeromycin” (Bioorg Med Chem Lett, 2008).
Activity calls are given as the source filed them. The rule behind the calls is not given here.

Key:
[1] = tested on: Mammalian orthoreovirus 1; experiment: Antiviral activity against Reovirus1; format: functional, organism-based
Human alphaherpesvirus 2 = experiment: Antiviral activity against HSV2; format: functional, organism-based
Vero = experiment: Cytotoxicity against african green monkey Vero cells; format: cell-based; conditions: chlorocebus sabaeus
Cowpox virus = experiment: Antiviral activity against Cowpox virus; format: functional, organism-based
Sindbis virus = experiment: Antiviral activity against Sindbis virus; format: functional, organism-based
HEL = experiment: Cytotoxicity against human HEL cells; format: cell-based
[2] = Cytotoxicity against african green monkey CV1 cells; format: cell-based; conditions: chlorocebus aethiops, cv-1
Vaccinia virus = experiment: Antiviral activity against vaccinia virus; format: functional, organism-based; conditions: Orthopoxvirus vaccinia
Human respirovirus 3 = experiment: Antiviral activity against Parainfluenza 3 virus; format: functional, organism-based
Coxsackievirus B4 = experiment: Antiviral activity against Coxsackie virus B4; format: functional, organism-based
A549 = experiment: Cytotoxicity against human A549 cells; format: cell-based
MDCK = experiment: Cytotoxicity against dog MDCK cells; format: cell-based, Canis lupus familiaris
[3] = tested on: Respiratory syncytial virus; experiment: Antiviral activity against RSV; format: functional, organism-based
Feline coronavirus = experiment: Antiviral activity against Feline coronavirus; format: functional, organism-based
Measles morbillivirus [4] = experiment: Antiviral activity against measles virus MO6 by visual assay; format: functional, organism-based
Punta Toro virus = experiment: Antiviral activity against Punta Toro virus; format: functional, organism-based
West Nile virus = experiment: Antiviral activity against West Nile virus; format: functional, organism-based
Human alphaherpesvirus 1 [5] = experiment: Antiviral activity against thymidine kinase deficient HSV1; format: functional, organism-based
[6] = tested on: Vesicular stomatitis virus; experiment: Antiviral activity against in Vesicular stomatitis virus; format: functional, organism-based
[7] = Cytotoxicity against rhesus monkey MA104 cells; format: cell-based, Macaca mulatta
Human alphaherpesvirus 1 [8] = experiment: Antiviral activity against HSV1; format: functional, organism-based
unidentified adenovirus = experiment: Antiviral activity against adenovirus; format: functional, organism-based
Measles morbillivirus [9] = experiment: Antiviral activity against measles virus MO6 by neutral red assay; format: functional, organism-based
[10] = Cytotoxicity against cat CRFK cells; format: cell-based, Felis catus
Hepatitis C virus = experiment: Antiviral activity against HCV; format: functional, organism-based; conditions: Hepacivirus hominis
Enterovirus = experiment: Antiviral activity against rhinovirus; format: functional, organism-based
HFF = experiment: Cytotoxicity against human HFF cells; format: cell-based
HeLa = experiment: Cytotoxicity against human HeLa cells; format: cell-based
[11] = Cytotoxicity against human Huh7ET cells; format: cell-based; conditions: huh-7

Nc1ncnc2c1ncn2[C@@H]1C[C@H](CF)[C@@H](O)[C@H]1O
Activity [1]: inactive
Activity (Human alphaherpesvirus 2): inactive
Activity (Vero): Non-toxic
Activity (Cowpox virus): inactive
Activity (Sindbis virus): inactive
Activity (HEL): Non-toxic
Activity [2]: Non-toxic
Activity (Vaccinia virus): inactive
Activity (Human respirovirus 3): inactive
Activity (Coxsackievirus B4): inactive
Activity (A549): Non-toxic
Activity (MDCK): Non-toxic
Activity [3]: inactive
Activity (Feline coronavirus): inactive
EC50 (Measles morbillivirus [4]): 13 µM
Activity (Punta Toro virus): inactive
Activity (West Nile virus): inactive
Activity (Human alphaherpesvirus 1 [5]): inactive
Activity [6]: inactive
Activity [7]: Non-toxic
Activity (Human alphaherpesvirus 1 [8]): inactive
Activity (unidentified adenovirus): inactive
EC50 (Measles morbillivirus [9]): 2.8 µM
Activity [10]: Non-toxic
Activity (Hepatitis C virus): inactive
Activity (Enterovirus): inactive
Activity (HFF): Non-toxic
Activity (HeLa): Non-toxic
Activity [11]: Non-toxic
